Measurements published in patent publication US8846376B2, “Recombinant bacterium capable of removing mercury (II) species, cadmium (II) and copper (II) in presence of other heavy metals from polluted sites, product for the bioremediation, process of obtaining the product and method of bioremediation” (Universidad Tecnica Federico Santa Maria, priority 2009, dated 2014).

Legend:
Assay type in all cases: cell-based
[1] = tested on: Cupriavidus metallidurans MSR33; experiment: Minimum inhibitory concentration (MIC) of heavy metals in agar plates, strain MSR33; settings: for Improved resistance (fold): MIC of MSR33 relative to CH34; for MIC, strain MSR33: agar plates, Tris mineral salts medium, increasing metal concentrations
Text: (§1) The increase of the heavy metal resistance of the novel strain Cupriavidus metallidurans MSR33 was confirmed measuring minimum inhibitory concentration (MIC) of heavy metals in agar plates containing Tris mineral salts medium supplemented with increasing heavy metal concentrations and the organomercurial compound methylmercury.

[2] = tested on: Cupriavidus metallidurans CH34; experiment: Minimum inhibitory concentration (MIC) of heavy metals in agar plates, strain CH34; settings: Tris mineral salts medium, increasing metal concentrations
Text: as §1

[3] = tested on: Cupriavidus metallidurans MSR33; experiment: Growth in Tris mineral salts medium with Hg(II) added at mid-exponential phase, strain MSR33; settings: Hg(II) 8 μg/g added at mid-exponential phase, succinate
Procedure: (§2) To characterize the novel mercury resistance capabilities, the recombinant strain Cupriavidus metallidurans MSR33 was grown in minimal medium supplemented with succinate as sole carbon source and energy and in the presence or absence of mercury. Cupriavidus metallidurans strain CH34 was also grown in these conditions.
(§3) The growth of both strains is similar in absence of Hg (II).

[4] = tested on: Cupriavidus metallidurans strain CH34; experiment: Growth in Tris mineral salts medium with Hg(II) added at exponential phase, strain CH34; settings: Hg^2+ 8 μg/g added at exponential phase, succinate
Procedure: as §2, §3

| Structure (SMILES) | Improved resistance (fold) [1] | MIC, strain MSR33 [1] | MIC, strain CH34 ([2]; parental strain CH34) | effect on growth of strain MSR33 [3] | effect on growth of strain CH34 [4] | MIC, strain CH34 ([2]; parental strain CH34, listed as CH3Hg^+) |
| --- | --- | --- | --- | --- | --- | --- |
| [Cd+2] [Cd^2+] | 1.6 fold | 160 µg/g | 100 µg/g |  |  |  |
| [Cu+2] [Cu^2+] |  | 240 µg/g | 240 µg/g |  |  |  |
| [Hg+2] [Hg^2+] | 2.4 fold | 24 µg/g | 10 µg/g | do not affect the growth | no further growth |  |
| [CH3][Hg][Cl] [MeHg^+, methylmercury] | >18.0 fold | 18 µg/g | <1 µg/g |  |  | sensitive |
